Read-outs that look alike come from different tables or passages of the source.

This assay concerns H460 cells. As to the kind of experiment: Alamar Blue antiproliferation assay, H460 cell line. Format: cell-based, human. The settings on record: Homo sapiens. As to the method:
To determine the effect of the compounds of the present invention on cell proliferation, the antiproliferative activity of these compounds was tested in a multi-well Alamar Blue based assay (at 2 h and 3 days). Cell growth in the presence and absence of the test compound as tabulated in Table 1 was compared, as measured by a fluorescence plate reader at excitation 550 nm and emission 590 nm (see Biosource International Inc., Tech Application Notes, Use of Alamar Blue in the measurement of Cell Viability and Toxicity, Determining IC50). H460 cells (ATCC HTB-177 ([…]), 4,000 cells/well/200 μl) and LNCap cells (ATCC CRL-1740, 6,000 cells/well/200 μl) were seeded in a 96 well plate in RPMI medium (Invitrogen Corporation, Carlsbad, Calif.). After 24 hours, these plates were divided into 3 groups—Control group, 2 h treatment group and 3 day treatment group.
In the 2 h treatment group, after 2 h the cells were rinsed to remove the test compound and incubated for 3 days, followed by staining with AlamarBlue. The cells in the 3-day treatment group were incubated for 3 days, followed by staining with AlamarBlue. In the Control group, AlamarBlue was added to the plate at (i) day 0 and (ii) day 3 and measured to establish the control reading. In all the groups, the capacity of the cells to proliferate was measured 6 hours after addition of AlamarBlue by a fluorescence plate reader at excitation 550 nm and emission 590 nm.
On the technique in general: The colour change of resazurin is a common sign of viable cells or microbes.

Setting [1] is: NCI-H460, 2 h treatment, then 3 days incubation, read-out: GI50 (nM) 2 Hour.
[2] abbreviates: NCI-H460, 2 h treatment, then 3 days incubation, read-out: GI90 (nM) 2 Hour.
The mark [3] stands for this setting: NCI-H460, 72 h, 3 day treatment, read-out: GI50 (nM) 3 Days.
The mark [4] stands for this setting: NCI-H460, 72 h, 3 day treatment, read-out: GI90 (nM) 3 Day.

On to `COc1ccc2c(C(=O)c3cc(OC)c(OC)c(OC)c3)n[nH]c2c1` [Compound 9], for which the GI50 (commonly the concentration that inhibits growth by half) under setting [1] was greater than 1000 nM and the GI50 under setting [3] was 100 nM. Further, the IC90 by setting is: under setting [2], greater than 1000 nM; under setting [4], 316 nM.

On to `COc1ccc2c(/C(=N/N)c3cc(OC)c(OC)c(OC)c3)n[nH]c2c1` [Compound 10], for which the GI50 reads like this: under setting [1], greater than 1000 nM; under setting [3], 398 nM. Further, the IC90 by setting is: under setting [2], greater than 1000 nM; under setting [4], 1000 nM.

Take `COc1ccc2c(/C(=N/O)c3cc(OC)c(OC)c(OC)c3)n[nH]c2c1` [Compound 11]: the 50% growth inhibitory concentration (GI50) is, setting by setting: under setting [1], greater than 1000 nM; under setting [3], 631 nM. Further, the IC90 runs as follows: under setting [2], greater than 1000 nM; under setting [4], greater than 1000 nM.

Take `COc1ccc2c(C(=O)c3cc(OC)c(OC)c(OC)c3)nn(C)c2c1` [Compound 12]: the GI50 was greater than 1000 nM under setting [1] and greater than 1000 nM under setting [3]. In addition, the IC90 was greater than 1000 nM under setting [2] and greater than 1000 nM under setting [4].

For the molecule `COc1ccc2c(C(=O)c3cc(OC)c(OC)c(OC)c3)n(C)nc2c1` [Compound 13], the GI50 was greater than 1000 nM under setting [1] and greater than 1000 nM under setting [3]. The IC90 is greater than 1000 nM under setting [2] and greater than 1000 nM under setting [4].

For `COc1ccc2c(C(=O)c3cc(OC)c(OC)c(OC)c3)n(Cc3ccccc3)nc2c1` [Compound 17], the 50% growth inhibitory concentration (GI50) is greater than 1000 nM under setting [1] and greater than 1000 nM under setting [3]. For the same molecule, the IC90 is, setting by setting: under setting [2], greater than 1000 nM; under setting [4], greater than 1000 nM.

In the case of `COc1ccc2c(c1)N=N/C2=C/c1cc(OC)c(OC)c(OC)c1` [Compound 19], the concentration for 50% growth inhibition (GI50) is greater than 10000 nM under setting [1] and greater than 1000 nM under setting [3]. Also, the IC90 is, setting by setting: under setting [2], greater than 1000 nM; under setting [4], greater than 1000 nM.

In the case of `COc1ccc2c(C(=O)c3cc(OC)c(OC)c(OC)c3)nn(C(=O)c3ccccc3)c2c1` [Compound 20], the 50% growth inhibitory concentration (GI50) is 630 nM under setting [1] and 100 nM under setting [3].

Take `COc1cc(C(=O)c2n[nH]c3c(Cl)c(OC)ccc23)cc(OC)c1OC` [Compound 21]: the GI50 is, setting by setting: under setting [1], greater than 10000 nM; under setting [3], 40 nM.

For the molecule `COc1cc(C(=O)c2n[nH]c3c(I)c(OC)ccc23)cc(OC)c1OC` [Compound 22], the GI50 is, setting by setting: under setting [1], greater than 10000 nM; under setting [3], 40 nM.

For `COc1ccc2c(C(=O)c3cc(OC)c(OC)c(OC)c3)nn(S(=O)(=O)c3ccc([N+](=O)[O-])cc3)c2c1` [Compound 23], the GI50 came out at 630 nM under setting [1] and 100 nM under setting [3].

For `COc1ccc2c(C(=O)c3cc(OC)c(OC)c(OC)c3)nn(S(=O)(=O)c3ccc(N)cc3)c2c1` [Compound 24], the GI50 under setting [1] came to 10000 nM and the GI50 under setting [3] was found to be 501 nM.

Take `COc1ccc2c(C(=O)c3cc(OC)c(OC)c(OC)c3)nn(S(=O)(=O)c3cccc4ccccc34)c2c1` [Compound 25]: the concentration for 50% growth inhibition (GI50) by setting is: under setting [1], greater than 10000 nM; under setting [3], 630 nM.

With `COc1ccc2c(C(=O)c3cc(OC)c(OC)c(OC)c3)nn(S(=O)(=O)c3ccc4ccccc4c3)c2c1` [Compound 26], the GI50 reads like this: under setting [1], greater than 10000 nM; under setting [3], 630 nM.

Turning to `COc1ccc2c(C(=O)c3cc(OC)c(OC)c(OC)c3)nn(P(=O)(OCc3ccccc3)OCc3ccccc3)c2c1` [Compound 27], the GI50 reads like this: under setting [1], greater than 10000 nM; under setting [3], 251 nM.

As for `COc1ccc2c(C(=O)c3cc(OC)c(OC)c(OC)c3)nn(S(=O)(=O)c3ccc(O)cc3)c2c1` [Compound 29], the GI50 was greater than 10000 nM under setting [1] and 630 nM under setting [3].

Consider `COc1cc(C(=O)c2n[nH]c3c(S(=O)(=O)c4ccc(OCc5ccccc5)cc4)c(OC)ccc23)cc(OC)c1OC` [Compound 31], for which the 50% growth inhibitory concentration (GI50) is greater than 10000 nM under setting [1] and greater than 10000 nM under setting [3].

Consider `COc1ccc2c3n(nc2c1)Cc1c(cc(OC)c(OC)c1OC)C3=O` [Compound 32], for which the concentration for 50% growth inhibition (GI50) is greater than 10000 nM under setting [1] and greater than 10000 nM under setting [3].

Consider `COc1ccc2c(C(=O)c3cc(OC)c(OC)c(OC)c3)nn(S(=O)(=O)Cc3ccc([N+](=O)[O-])cc3)c2c1` [Compound 33], for which the GI50 is, setting by setting: under setting [1], greater than 10000 nM; under setting [3], 1000 nM.

Take `COc1ccc2c(C(=O)c3cc(OC)c(OC)c(OC)c3)nn(C(=O)Cc3ccc(OCc4ccccc4)cc3)c2c1` [Compound 34]: the GI50 runs as follows: under setting [1], greater than 10000 nM; under setting [3], 126 nM.

With `COc1cc(C(=O)c2n[nH]c3c(C#CC(C)(C)O)c(OC)ccc23)cc(OC)c1OC` [Compound 36], the GI50 is greater than 10000 nM under setting [1] and 63 nM under setting [3].

`COc1cc(C(=O)c2nn(Cc3ncc([N+](=O)[O-])n3C)c3c(Br)c(OC)ccc23)cc(OC)c1OC` [Compound 38]: the 50% growth inhibitory concentration (GI50) is, setting by setting: under setting [1], greater than 10000 nM; under setting [3], 631 nM.

For the molecule `COc1ccc2[nH]nc(C(=O)c3cc(OC)c(OC)c(OC)c3)c2c1` [Compound 42], the 50% growth inhibitory concentration (GI50) is greater than 1000 nM under setting [1] and greater than 1000 nM under setting [3]. Further, the IC90 is greater than 1000 nM under setting [2] and greater than 1000 nM under setting [4].

Consider `COc1cc(C(=O)c2n[nH]c3ccc(F)cc23)cc(OC)c1OC` [Compound 43], for which the GI50 is greater than 10000 nM under setting [1] and greater than 10000 nM under setting [3]. The IC90 was greater than 1000 nM under setting [2] and greater than 1000 nM under setting [4].

Turning to `COc1ccc2c(/C(=N/NC(C)=O)c3cc(OC)c(OC)c(OC)c3)n[nH]c2c1` [Compound 44], the concentration for 50% growth inhibition (GI50) runs as follows: under setting [1], greater than 5000 nM; under setting [3], 1580 nM. In addition, the IC90 is greater than 5000 nM under setting [2] and greater than 5000 nM under setting [4].

On to `COc1ccc2c(C(=O)c3cc(OC)c(OC)c(OC)c3N)n[nH]c2c1` [Compound 45], for which, under setting [3], the GI50 was determined as 158 nM.

With `COc1ccc2c(C(=O)c3cc(OC)c(OC)c(OC)c3)nn(S(=O)(=O)c3ccc(C)cc3)c2c1` [Compound 47], the 50% growth inhibitory concentration (GI50) under setting [3] came to 25 nM.

In the case of `COc1ccc2c(C(=O)c3cc(OC)c(OC)c(OC)c3Br)nn(S(=O)(=O)c3ccc(C)cc3)c2c1` [Compound 48], under setting [3], the GI50 was found to be 630 nM.

For the molecule `COc1ccc2c(C(=O)c3cc(OC)c(OC)c(OC)c3)nn(P(=O)(OC)OC)c2c1` [Compound 49], the GI50 under setting [3] was determined as 15.8 nM.

Regarding `CCC(=O)n1nc(C(=O)c2cc(OC)c(OC)c(OC)c2)c2ccc(OC)cc21` [Compound 50], the GI50 runs as follows: under setting [1], greater than 10000 nM; under setting [3], 20 nM.

Regarding `COc1cc(C(=O)c2n[nH]c3c(C#CCNC(=O)C(F)(F)F)c(OC)ccc23)cc(OC)c1OC` [Compound 52], the GI50 under setting [1] is greater than 1000 nM and the 50% growth inhibitory concentration (GI50) under setting [3] turned out to be 100 nM.

Turning to `COc1cc(C(=O)c2n[nH]c3c(C#CCN)c(OC)ccc23)cc(OC)c1OC` [Compound 53], the concentration for 50% growth inhibition (GI50) came to 630 nM under setting [1] and 158 nM under setting [3].

In the case of `COc1ccc2c(C(=O)c3cc(OC)c(OC)c(OC)c3)nn(CO)c2c1` [Compound 56], the GI50 under setting [1] was greater than 10000 nM and the 50% growth inhibitory concentration (GI50) under setting [3] came to 50.1 nM.

Take `COc1cc(C(=O)c2n[nH]c3c(C(=O)O)c(OC)ccc23)cc(OC)c1OC` [Compound 59]: the concentration for 50% growth inhibition (GI50) was greater than 1000 nM under setting [1] and 794 nM under setting [3].

For the molecule `COc1cc(C(=O)c2n[nH]c3c(CCCCO)c(OC)ccc23)cc(OC)c1OC` [Compound 61], the GI50 runs as follows: under setting [1], greater than 1000 nM; under setting [3], greater than 1000 nM.

With `COc1ccc2c(C(=O)c3cc(OC)c(OC)c(OC)c3)nn(CC(=O)O)c2c1` [Compound 62], the concentration for 50% growth inhibition (GI50) reads like this: under setting [1], greater than 1000 nM; under setting [3], 630 nM.

As for `COc1ccc2c(C(=O)c3cc(OC)c(OC)c(OC)c3)nn(CC(N)=O)c2c1` [Compound 63], the GI50 runs as follows: under setting [1], greater than 1000 nM; under setting [3], 630 nM.
